Test in all cases: NCI-60 cell line screen, 48 h
Test [1] concerns DU-145 prostate.
Test [2] deals with HCT-116 colon.
Test [3] concerns HT29 colon.
The test system of test [4] is MCF7 breast.
The test system of test [5] is NCI-H23 lung.
Test [6] has as its system SK-MEL-28 melanoma.
Test [7] has as its system SK-OV-3 ovarian.
Test [8] deals with SNB-75 CNS.
The test system of test [9] is T-47D breast.
Test [10] deals with UACC-257 melanoma.

Each structure is given as a SMILES string.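 Five compound concentrations were applied to cells in 96-well plates for 48 hours; endpoints were derived by simple linear interpolation of the resulting dose-response curve. TGI: total growth inhibition.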 Where a SMILES comes first, the peptide text is derived from it. [ ]: non-standard residue; d: D form. The star is where a group is joined. ξ: configuration not given here. ξF = NC(Cc1ccccc1)C(=O)O; Cbz = O=C(OCc1ccccc1)*; Aib = CC(C)(N)C(=O)O A value given as a limit tells only on which side of the number the result lay.

For `CC(C)(CO)CNc1cc(=O)[nH]c(N)n1`, the TGI in test [1], in test [2], in test [3], in [4], in test [5] and in [6] was > 100 µM each time. For the same molecule, the TGI in test [7], in [8], in test [9] and in test [10] was > 100 µM each time.
As for `OC(C1CCC=NN1C(O)(C(F)(F)F)C(F)(F)F)(C(F)(F)F)C(F)(F)F` (stereo unspecified), the TGI in [1], in [2], in test [3], in [4], in test [5] and in [6] was > 10 µM in each case. Further, the TGI in test [7], in test [8], in [9] and in [10] was > 10 µM each time.
For the molecule `CCN1CC(C)Cn2c(=O)[nH]c3cc(Br)cc1c32` (stereo unspecified), the TGI in test [1] is > 100 µM; in test [2] it was > 100 µM; in [3], > 100 µM; in [4] it was 87.4 µM; in test [5], > 100 µM; in test [6], > 100 µM. The TGI in [7] was > 100 µM; in [8], 48.3 µM; in [9], > 100 µM; in [10] it was > 100 µM.
Regarding `CC(C)(NC(=O)OCc1ccccc1)C(=O)NC(Cc1ccccc1)C(=O)O` (stereo unspecified) (Cbz-[Aib]-[ξF]-OH), the TGI in test [1], in [2], in [3], in [4], in test [5] and in [6] was > 100 µM each time. For the same molecule, the TGI in test [7], in test [8], in test [9] and in [10] was > 100 µM in each case.
For `NCCC(N)C(=O)O` (stereo unspecified), the TGI in test [1], in [2], in test [3], in [4], in test [5] and in [6] was > 100 µM throughout. The TGI in [7], in [9] and in test [10] was > 100 µM in each case.
Regarding `O=C(Nc1ccccc1)O/N=C(/CBr)c1ccccc1`, the TGI in [1] is 38.1 µM; in test [2], 20 µM; in [3], > 100 µM; in test [4], 40 µM; in [5], 26.2 µM; in test [6] it was 43.2 µM. Besides, the TGI in test [7] was determined as 95 µM; in test [8], 30.5 µM; in [9], 32.6 µM; in test [10], 35.5 µM.
In the case of `Cc1ccc(S(=O)(=O)N/C(=C\C=C\c2ccccc2)C(=O)C(C)(C)C)cc1`, the TGI in test [1], in test [2], in test [3], in [4], in test [5] and in test [6] was > 100 µM throughout. In addition, the TGI in test [7], in test [8], in [9] and in [10] was > 100 µM throughout.
As for `CC(C)Oc1c(-c2c(OC(C)C)c(=O)c2=O)c(=O)c1=O`, the TGI in test [1] was > 100 µM; in [2] it was > 51 µM; in [3] it was > 58.3 µM; in [4], > 41.8 µM; in test [5], > 75.6 µM; in [6] it was > 100 µM. For the same molecule, the TGI in test [7] was > 100 µM; in test [8], > 71.2 µM; in test [9] it was > 100 µM; in [10] it was > 100 µM.
Take `CCNC(=O)Nc1cccc(C)n1`: the TGI in test [1], in [2], in test [3], in [4], in test [5] and in test [6] was > 100 µM in each case. The TGI in [7], in test [8], in test [9] and in [10] was > 100 µM throughout.
Turning to `Cc1ccc([N+](=O)[O-])cc1S(=O)(=O)Nc1ccc(C2=NN(c3ccc([N+](=O)[O-])cc3[N+](=O)[O-])C(c3ccccc3)C2)cc1` (stereo unspecified), the TGI in [1] was 38.9 µM; in test [2], 27.4 µM; in [3] it was 37.6 µM; in test [4], 26.3 µM; in [5], 31.5 µM; in test [6] it was > 100 µM. Moreover, the TGI is 65.8 µM in [7], 52.4 µM in test [8], > 100 µM in [9] and 40.7 µM in [10].
Turning to `CC(C)(CN)CN`, the TGI in [1], in test [2], in test [3], in test [4], in test [5] and in test [6] was > 100 µM throughout. The TGI in test [7], in test [8], in test [9] and in test [10] was > 100 µM each time.
On to `C=CC[C@H]1[C@@H](O[Si](C)(C)C(C)(C)C)[C@H](n2ccc(=O)[nH]c2=O)O[C@@H]1CO[Si](C)(C)C(C)(C)C`, for which the TGI in [1] came to 6.64 µM; in test [2], 3.11 µM; in test [3] it was 2.96 µM; in test [4], 3.8 µM; in test [5], 5.93 µM; in test [6] it was 3.01 µM. The TGI in test [7] was 2.68 µM; in test [8], 3.97 µM; in test [9], 9.11 µM; in test [10], 5.34 µM.
As for `CC(=O)O/C=C\OC1CCCC1(c1ccccc1)c1ccccc1` (stereo unspecified), the TGI is 13.7 µM in test [1]; 4.19 µM in [2]; 8.71 µM in test [3]; 5.42 µM in test [4]; 8.11 µM in test [5]; 4.59 µM in test [6]. For the same molecule, the TGI came to 27.6 µM in test [7], 11.5 µM in [8], 6.19 µM in test [9] and 13.6 µM in test [10].
As for `Cc1cc2c(cc1Cl)Sc1nnc(Nc3ccccc3)n1S2(=O)=O`, the TGI in test [1] is > 100 µM; in [2] it was 37.1 µM; in test [3], > 100 µM; in test [4], 32.4 µM; in test [5], 15.9 µM; in test [6] it was 70.9 µM. The values for the TGI in test [8], in test [9] and in [10] were 23.7 µM, 57.3 µM and 61.2 µM, respectively.
Regarding `Cc1ccc2c(=O)cc(-c3csc4ccccc34)[nH]c2n1`, the TGI in [1] was 1.09 µM; in test [2] it was 9.38 µM; in [3], 0.0481 µM; in test [4], 18.1 µM; in test [5] it was 2.51 µM; in [6], > 100 µM. The TGI is > 32 µM in test [7], > 51.2 µM in [8] and > 100 µM in test [9].
Turning to `CC(C)(C)OC(=O)n1cc(C2CNC(=O)C23CCC(=O)N3Cc2ccccc2)c2ccccc21` (stereo unspecified), the TGI in test [1] was 55.4 µM; in test [2] it was > 100 µM; in test [3] it was 37.3 µM; in [4], 80.3 µM; in test [5], 57.1 µM; in [7] it was 58.3 µM. Besides, the TGI in test [8] is 38.2 µM; in test [9], > 100 µM; in [10], 65.2 µM.
Turning to `O=C(Nc1ccccc1F)c1c(O)nc2sccn2c1=O`, the TGI in test [1], in test [2], in [3], in [4], in [5] and in test [6] was > 10 µM throughout. Besides, the TGI in [7], in test [8] and in [9] was > 10 µM each time.
Take `CSc1nc(NC2CCCC2)c2cc[nH]c2n1`: the TGI in test [1], in test [2], in test [3], in test [4], in [5] and in [6] was > 100 µM in each case. In addition, the TGI in test [7], in test [9] and in [10] was > 100 µM each time.
For `Cc1ccc(N=Nc2c(C)nn(C(=O)CC(=O)Nc3ccccc3)c2C)cc1C`, the TGI in [1], in test [2], in [3], in test [4], in [5] and in [6] was > 100 µM each time. Besides, the TGI in test [7], in test [8] and in test [9] was > 100 µM in each case.
For the molecule `Cn1ccnc1S/C(=C\C=C(C#N)C#N)c1ccc(Cl)cc1`, the TGI in test [1] came out at 10.9 µM; in test [2], 1.58 µM; in [3], 16.2 µM; in test [4], 2.62 µM; in [5], 5.31 µM; in test [7], 38.8 µM. Besides, the TGI was 12.5 µM in test [8], > 100 µM in [9] and 5.5 µM in [10].
`COc1ccc(N(C(=O)Nc2ccc(Cl)c(Cl)c2)c2ccccc2)cc1`: the TGI in [1], in test [2], in test [3], in test [4], in test [5] and in [6] was > 10 µM throughout. For the same molecule, the TGI in [7], in [9] and in [10] was > 10 µM in each case.
